Experimental data published in patent US20210205253A1, “Use Of Stearic Acid For Preventing Or Treating Pulmonary Fibrosis” (THE ASAN FOUNDATION, priority 2018, published 2021).

Key:
pulmonary fibroblasts = assay: Collagen 1 and α-SMA immunoblotting in pulmonary fibroblasts; assay type: cell-based, human; conditions: stearic acid 40 uM/mL
Method: After epithelial cells and fibroblasts were aliquoted into 6-well plates at 2×10^4 cells/well and a stabilization time was imparted for 24 hours, and 15 hours after deficiency, cells were treated with stearic acid (40 uM/mL), TGF-β (5 ng/mL), and stearic acid (40 uM/mL)+TGF-β (5 ng/mL) in this order. After the cells were cultured in an incubator for 24 hours after the treatment, the next-step experiment was performed. After 24 hours of cell stimulation by the method of Example 1-3, the cells were washed twice with iced phosphate buffer saline (PBS), a protein lysate solution was put thereinto, the cells were scraped out and collected in a 1.5 ml EP tube, and then the cells were lysed in a grinder for 30 seconds. Next, centrifugation was performed at a speed of 14,000 rpm at 4° C. for 20 minutes, and the protein was quantified using the BCA analysis method. Thereafter, the protein sample was boiled at 95° C. for 10 minutes for the same amount of protein, and then the expression levels of collagen type 1 and α-SMA were measured by immunoblotting. After the expression level of the protein was confirmed, a significance test between samples was performed using a statistical program. […] The collagen 1/actin or α-SMA/actin indicated on the y-axis of FIGS. 4A and 4B means a value obtained by correcting the protein amount of collagen 1 or α-SMA with the amount of actin, which is an intracellular control protein. […] Further, referring to the test method of obtaining the results in FIG. 4, after pulmonary fibroblasts were treated with palmitic acid at various concentrations (10, 20, and 40 μM/mL), the levels of collagen 1 (collagen 1/actin; FIG. 6A) and α-SMA (α-SMA/actin; FIG. 6B), which are intracellular fibrosis markers, were measured, and shown as relative values to the control (CTL; medium only). […] 40 uM/mL stearic acid, 10 uM/mL palmitic acid, and 5 ng/mL TGF-β were used in the experiment, respectively. […] In addition, referring to the test method of obtaining the results in FIG. 7, the experiment was performed using oleic acid (OA) instead of palmitic acid, and the levels of collagen 1 (collagen 1/actin; FIG. 8A) and α-SMA (α-SMA/actin; FIG. 8B) were measured and shown as relative values to the control (CTL; medium only). 40 uM/mL stearic acid, 40 uM/mL oleic acid, and 5 ng/mL TGF-β were used in the experiment, respectively.

[1] = system: pulmonary fibrosis induced by bleomycin; assay: Combined stearic acid and pirfenidone in bleomycin pulmonary fibrosis animal model; assay type: in vivo, mice (C57BL/6J); conditions: 3 mg/kg stearic acid, 300 mg/kg pirfenidone oral once every 2 days for 2 weeks; versus bleomycin group
Method: In addition to the results of the above examples, the present inventors sought to confirm the anti-fibrotic effect by the combined treatment of stearic acid and pirfenidone in a pulmonary fibrosis animal model. For this purpose, 8-week-old mice (C57BL/6J) were anesthetized with 50 mg/kg […] and 5 mg/kg Rompun, followed by injection of bleomycin and saline into the trachea. From 7 days after administration of bleomycin, 3 mg/kg stearic acid, 300 mg/kg pirfenidone or the two drugs were orally administered at the same time once every 2 days for 2 weeks, and changes in mouse body weight were measured up to 21 days after administration of bleomycin.

[2] = system: pulmonary fibrosis induced by bleomycin; assay: Stearic acid in bleomycin-induced pulmonary fibrosis animal model; assay type: in vivo, mice (C57BL6J)
Text: Based on the results of Example 2-2, the present inventors attempted to verify the anti-fibrotic effect of stearic acid in an animal model in which pulmonary fibrosis was induced by bleomycin. For this purpose, 6-week-old mice (C57BL6J) were classified into the following 4 groups of 4 or 5 mice, respectively: groups treated with (1) intratracheal saline+vehicle, (2) intratracheal saline+stearic acid, (3) intratracheal 4 units/kg bleomycin+vehicle, and (4) intratracheal bleomycin+stearic acid. Subsequently, mice were anesthetized with 50 mg/kg […] and 5 mg/kg Rompun, followed by infusion of bleomycin and saline into the trachea. The mice were treated with 3 mg/kg stearic acid using oral gavage (zonde) three times a week for 3 weeks. Thereafter, on day 21, lung tissues and blood were collected from the mice and used for the study.

[3] = system: reactive oxygen species in MRC-5 cells; assay: ROS measurement (DCF-DA, FACS); assay type: cell-based, human; conditions: 40 μM stearic acid pre-treatment 16 h, TGF-β1 1 h
Method: The present inventors pre-treated a human pulmonary fibroblast cell line MRC-5 with 40 μM stearic acid for 16 hours, treated the MRC-5 cells with TGF-β1 for 1 hour, and then examined the expression levels of p-Smad2/3 and Smad7 in order to elucidate the anti-fibrotic mechanism of stearic acid in human pulmonary fibroblasts (FIGS. 12A and 12B). Further, to investigate the effect of stearic acid on the production of reactive oxygen species (ROS), MRC-5 cells were pre-treated with 40 μM stearic acid for 16 hours, and cells treated with TGF-β1 for 1 hour were stained with DCF-DA and analyzed by FACS (FIG. 12C). Furthermore, MRC-5 cells were pre-treated with 5 mM N-acetylcysteine (NAC), which is an antioxidant, for 1 hour and treated with TGF-β1 for 1 hour, and then the expression of p-Smad2/3 was examined (FIG. 12D).

[4] = system: Beas-2B human pulmonary epithelial cell line; assay: E-cadherin expression in epithelial cells; assay type: cell-based; conditions: 40 μM stearic acid, 24 h
Method: The present inventors examined the expression level of E-cadherin after treating Beas-2B, which is a human pulmonary epithelial cell line, with TGF-β1 and/or 40 μM stearic acid for 24 hours in order to examine the effects of stearic acid on epithelial cells. As a result, as illustrated in FIGS. 11A and 11B, it was confirmed that when Beas-2B was treated with 40 μM stearic acid, the expression of E-cadherin reduced by TGF-β1 was restored in Beas-2B cells. […] It was confirmed in FIG. 3B that when epithelial cells are treated with TGF-β1, the proliferation of epithelial cells was inhibited and the proliferation of epithelial cells was restored by stearic acid.

[5] = increase by oleic acid 40 uM/mL
[6] = increase by palmitic acid 10 uM/mL
[7] = day 21, stearic acid 3 mg/kg oral

## CCCCCCCCCCCCCCCCCC(=O)O [stearic acid]
Pulmonary fibroblasts; increase by TGF-β 5 ng/mL
  collagen 1/actin: significantly inhibited
  α-SMA/actin: significantly inhibited
Pulmonary fibroblasts; [5]
  collagen 1/actin: significantly inhibited
  α-SMA/actin: significantly inhibited
Pulmonary fibroblasts; [6]
  collagen 1/actin: significantly inhibited
  α-SMA/actin: significantly inhibited
[1]
  level of hydroxyproline: partially reduced
[2]; day 7, stearic acid 3 mg/kg oral gavage three times a week
  reduction in body weight due to bleomycin: significantly inhibited
[2]; [7]
  expression of p-Smad2/3 in lung tissues: inhibition of an increase in expression of p-Smad2/3
  expression of α-SMA in lung tissues: inhibiting an increase in expression of α-SMA
[2]; day 21, stearic acid 3 mg/kg oral, 3 weeks
  histopathological characteristics of pulmonary fibrosis (H&E): remarkably reduced
[2]; lung tissue, day 21, stearic acid 3 mg/kg oral
  accumulation of hydroxyproline: inhibiting the accumulation of hydroxyproline
[2]; serum, day 21, stearic acid 3 mg/kg oral
  blood level of TGF-β1: inhibiting an increase in the blood level of TGF-β1
[3]
  level of reactive oxygen species induced by TGF-β1: remarkably reduced
[4]
  expression of E-cadherin reduced by TGF-β1: restored
